Results taken from ChEMBL document CHEMBL1134487, “Design, synthesis, and biological evaluation of analogues of the antitumor agent, 2-(4-[(7-chloro-2-quinoxalinyl)oxy]phenoxy)propionic acid (XK469)” (2001).
Active and inactive are the calls of the source. No cut-off for these calls is given here.

Columns and labels:
Mus musculus [1] = assay: In vivo activity tested against C3H mice bearing colon adenocarcinoma -38(colon-38) tumor measured as body weight loss at 585 mg/kg (po); type: functional
Mus musculus [2] = assay: In vivo activity tested against C3H mice bearing mammary adenocarcinoma -16c/ADR tumor measured as body weight loss at 582 mg/kg (po); type: functional
Mus musculus [3] = assay: In vivo activity tested against C3H mice bearing mammary adenocarcinoma -17/ADR tumor measured as % treated/control calculated at 679 mg/kg (po); type: functional
Mus musculus [4] = assay: In vivo activity tested against C3H mice bearing mammary adenocarcinoma -16c/ADR tumor measured as log Kill value was based on tumors that grew at 582 mg/kg (po); type: functional, organism-based; parameters: dose 582 mg/kg
Mus musculus [5] = assay: In vivo activity tested against C3H mice bearing mammary adenocarcinoma -17/ADR tumor measured as % treated/control calculated at 407.4 mg/kg (po); type: functional
Mus musculus [6] = assay: In vivo activity tested against C3H mice bearing colon adenocarcinoma -38(colon-38) tumor measured as log Kill value was based on tumors that grew at 195 mg/kg (po); type: functional, organism-based; parameters: dose 195 mg/kg
Mus musculus [7] = assay: In vivo activity tested against C3H mice bearing mammary adenocarcinoma -16c/ADR tumor measured as body weight loss at 455 mg/kg (po); type: functional
Mus musculus [8] = assay: In vivo activity tested against C3H mice bearing mammary adenocarcinoma -16c/ADR tumor measured as log Kill value was based on tumors that grew at 455 mg/kg (po); type: functional, organism-based; parameters: dose 455 mg/kg
Mus musculus [9] = assay: In vivo activity tested against C3H mice bearing mammary adenocarcinoma -16c/ADR tumor measured as % treated/control calculated at 455 mg/kg (po); type: functional
Mus musculus [10] = assay: In vivo activity tested against C3H mice bearing mammary adenocarcinoma -16c/ADR tumor measured as % treated/control calculated at 582 mg/kg (po); type: functional
Mus musculus [11] = assay: In vivo activity tested against C3H mice bearing colon adenocarcinoma -38(colon-38) tumor measured as % treated/control calculated at 195 mg/kg (po); type: functional
Mus musculus [12] = assay: In vivo activity tested against C3H mice bearing colon adenocarcinoma -38(colon-38) tumor measured as log Kill value was based on tumors that grew at 585 mg/kg (po); type: functional, organism-based; parameters: dose 585 mg/kg
Mus musculus [13] = assay: In vivo activity tested against C3H mice bearing mammary adenocarcinoma -17/ADR tumor measured as body weight loss at 407.4 mg/kg (po); type: functional
Mus musculus [14] = assay: In vivo activity tested against C3H mice bearing mammary adenocarcinoma -17/ADR tumor measured as body weight loss at 679 mg/kg (po); type: functional
Mus musculus [15] = assay: In vivo activity tested against C3H mice bearing colon adenocarcinoma -38(colon-38) tumor measured as body weight loss at 195 mg/kg (po); type: functional
Mus musculus [16] = assay: In vivo activity tested against C3H mice bearing mammary adenocarcinoma -17/ADR tumor measured as log Kill value was based on tumors that grew at 679 mg/kg (po); type: functional, organism-based; parameters: dose 679 mg/kg
Mus musculus [17] = assay: In vivo activity tested against C3H mice bearing colon adenocarcinoma -38(colon-38) tumor measured as % treated/control calculated at 585 mg/kg (po); type: functional
Mus musculus [18] = assay: In vivo activity tested against C3H mice bearing mammary adenocarcinoma -17/ADR tumor measured as log Kill value was based on tumors that grew at 407.4 mg/kg (po); type: functional, organism-based; parameters: dose 407.4 mg/kg
Mus musculus [19] = assay: In vivo activity tested against C3H mice bearing colon adenocarcinoma -38(colon-38) tumor measured as % treated/control calculated at 2770 mg/kg (po); type: functional
Mus musculus [20] = assay: In vivo activity tested against C3H mice bearing colon adenocarcinoma -38(colon-38) tumor measured as activity rating at 2770 mg/kg (po); type: functional
Mus musculus [21] = assay: In vivo activity tested against C3H mice bearing colon adenocarcinoma -38(colon-38) tumor measured as log Kill value was based on tumors that grew at 2770 mg/kg (po); None; type: functional, organism-based; parameters: dose 2770 mg/kg
Mus musculus [22] = assay: In vivo activity tested against C3H mice bearing colon adenocarcinoma -38(colon-38) tumor measured as body weight loss at 2770 mg/kg (po); type: functional
Mus musculus [23] = assay: In vivo activity tested against C3H mice bearing colon adenocarcinoma -38(colon-38) tumor measured as activity rating at 2686 mg/kg (po); type: functional
Mus musculus [24] = assay: In vivo activity tested against C3H mice bearing colon adenocarcinoma -38(colon-38) tumor measured as body weight loss at 2686 mg/kg (po); type: functional
Mus musculus [25] = assay: In vivo activity tested against C3H mice bearing colon adenocarcinoma -38(colon-38) tumor measured as % treated/control calculated at 2686 mg/kg (po); type: functional
Mus musculus [26] = assay: In vivo activity tested against C3H mice bearing colon adenocarcinoma -38(colon-38) tumor measured as log Kill value was based on tumors that grew at 2686 mg/kg (po); type: functional, organism-based; parameters: dose 2686 mg/kg

Q: Which Body weight loss (Mus musculus [1]) does the source give for `COc1ccc2ncc(Oc3ccc(OC(C)C(=O)O)cc3)nc2c1` (stereo unspecified) here?
A: 0%

Q: What about the Body weight loss (Mus musculus [2]) of the same compound?
A: -13.6%

Q: What about the T/C (Mus musculus [3]) of the same compound?
A: 4.6%

Q: And the Log kill (Mus musculus [4])?
A: 2.7

Q: What about the T/C (Mus musculus [5]) of the same compound?
A: 6.4%

Q: And the Log kill (Mus musculus [6])?
A: 0.12

Q: And the Body weight loss (Mus musculus [7])?
A: -1.2%

Q: And the Log kill (Mus musculus [8])?
A: 2.1

Q: What about the T/C (Mus musculus [9]) of the same compound?
A: 8%

Q: And the T/C (Mus musculus [10])?
A: 0%

Q: And the T/C (Mus musculus [11])?
A: 90%

Q: What about the Log kill (Mus musculus [12]) of the same compound?
A: 1.73

Q: What about the Body weight loss (Mus musculus [13]) of the same compound?
A: 0%

Q: And the Body weight loss (Mus musculus [14])?
A: -4.6%

Q: And the Body weight loss (Mus musculus [15])?
A: 0%

Q: What about the Log kill (Mus musculus [16]) of the same compound?
A: 3

Q: And the T/C (Mus musculus [17])?
A: 23%

Q: And the Log kill (Mus musculus [18])?
A: 1.7

Q: What does the source list for `COC(=O)C(C)Oc1ccc(Oc2cnc3cc(Cl)ccc3n2)cc1` (stereo unspecified)?
A: T/C (Mus musculus [19]): >100%; Activity rating (Mus musculus [20]): <0.7; Log kill (Mus musculus [21]): inactive; Body weight loss (Mus musculus [22]): 0%

Q: `CCOC(=O)C(C)Oc1ccc(Oc2cnc3cc(Cl)ccc3n2)cc1` (stereo unspecified) [QUIZALOFOP ETHYL ESTER] was tested. Which Activity rating (Mus musculus [23]) did it give?
A: <0.7

Q: What about the Body weight loss (Mus musculus [24]) of the same compound?
A: 0%

Q: What about the T/C (Mus musculus [25]) of the same compound?
A: 61%

Q: And the Log kill (Mus musculus [26])?
A: 0.42
